Data from patent US5070210A, “Novel ketenimines as intermediates for insecticides” (ICI Americas Inc., priority 1990, dated 1991).

Tests used:
Format in all cases: in vivo
[1] = tested on: Cabbage Looper [Trichoplusia ni (Hubner)]; assay: Cabbage looper insecticidal test; settings: second-instar larvae, percent in solution; 3-5 days
In short: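 Compounds in 50-50 acetone-water were applied by dipping squash cotyledons (about 1×1.5 in) for 2-3 s; dried leaves went into petri dishes on moist filter paper with 5 second-instar larvae under high humidity. Mortality was scored after 3-5 days; LC50 from dosage-mortality curves, as percent compound in solution.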

[2] = tested on: Aster Leafhopper [Macrosteles fascifrens (Stal)]; assay: Aster leafhopper insecticidal test; settings: adults/nymphs, percent in solution; 48 hours
In short: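 LC50 values, given as percent of test compound in the dip solution, were derived from dosage-mortality curves over concentrations from 0.05% downward. Mortality was counted 48 hours after ten leafhopper adults/nymphs were enclosed on treated seedlings. The seedlings were oats, about 10 cm tall, briefly dipped in 50-50 acetone-water.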

[3] = tested on: Tobacco Budworm [Heliothis virescens (Fabricius)] eggs; assay: Tobacco budworm egg test; settings: 2-day old eggs, percent in solution
In short: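 Paper towel patches bearing 2-day old eggs were dipped in acetone solutions of compound, then set in petri dishes over larval rearing medium at 78° F. Mortality was scored once all control eggs had hatched and larvae were feeding. LC50, from dosage-mortality curves, is given as percent compound in solution.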

[4] = tested on: Tobacco Budworm [Heliothis virescens (Fabricius)] larvae; assay: Tobacco budworm contact test; settings: second-instar larvae, percent in solution, 5 days
Method: The compounds in Tables 1 and 2 above were tested for insecticidal activity using the following testing procedures. LC50 values, based on the results of these tests and calculated according to dosage-mortality curves, are expressed in Table 3.
Tobacco Budworm [Heliothis virescens (Fabricius)]:
(a) Contact: Test compounds were diluted in a 50-50 acetone-water solution. Cotton (Gossypium sp.) cotyledons were immersed in the test solutions for 2-3 seconds and placed on a wire screen to dry. The dried leaves were placed in petri dishes containing a moistened piece of filter paper and infested with 5 second-instar tobacco budworm larvae. The dishes were placed in a high humidity chamber for 5 days, and percent mortality of the larvae recorded. Test concentrations ranged from 0.1% downward. The LC-50 values are expressed below in Table 3 under the heading "TBW-C" in terms of percent of the test compound in the solution.

[5] = tested on: Housefly [Musca domestica]; assay: Housefly insecticidal test; settings: μg per 25 female flies; mortality after 48 hours
In short: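 LC50, as μg compound per 25 female flies, comes from dosage-mortality curves with doses from 100 μg downward. Residues were made by evaporating acetone plus 0.01% peanut oil in dishes, onto which 1-2-day-old females were caged; deaths were counted after 48 hours.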

[6] = tested on: Maize weevil [Sitophilus Zeamais (Motschulsky)]; assay: Maize weevil insecticidal test; settings: adult weevils, percent in solution; 48 hours
In short: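 LC50, in percent of compound in solution, was derived from dosage-mortality curves after 48 h at about 25 °C. Ten adult weevils per container fed on four corn seeds briefly immersed in acetone:water (50:50) solutions of up to 0.01% and dried.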

## CC1(C(=Nc2ccc(Cl)cc2)OCc2cccc(Oc3ccccc3)c2)CC1 [Compound 5]
[1]
  LC50, CL: 0.005%
[2]
  LC50, LH: > 0.05%
[3]
  LC50, TBW, E (TBW-E): 0.05%
[4]
  LC50, TBW, C (TBW-C): 0.008%
[5]
  LC50, HF: 21 µg
[6]
  LC50, MW: > 0.01%

## CC(C)(C)C(=Nc1ccc(Cl)cc1)OCc1cccc(Oc2ccccc2)c1 [Compound 30]
[1]
  LC50, CL: 0.003%
[2]
  LC50, LH: > 0.05%
[3]
  LC50, TBW, E (TBW-E): > 0.1%
[4]
  LC50, TBW, C (TBW-C): 0.01%
[5]
  LC50, HF: > 100 µg
[6]
  LC50, MW: > 0.01%

## CC(C)C(=Nc1ccc(Cl)c(Cl)c1)OCc1cccc(Oc2ccc(F)cc2)c1 [Compound 37]
[1]
  LC50, CL: 0.0004%
[2]
  LC50, LH: 0.002%
[3]
  LC50, TBW, E (TBW-E): 0.014%
[4]
  LC50, TBW, C (TBW-C): 0.0005%
[5]
  LC50, HF: 21 µg
[6]
  LC50, MW: 0.009%

## ClC(Cl)C(=Nc1ccccc1)OCc1cccc(Oc2ccccc2)c1 [Compound 41]
[1]
  LC50, CL: 0.015%
[3]
  LC50, TBW, E (TBW-E): 0.04%
[4]
  LC50, TBW, C (TBW-C): 0.0035%
[5]
  LC50, HF: 4.5 µg

## CC(C)C(=Nc1c(F)c(F)c(F)c(F)c1F)OCc1cccc(Oc2ccccc2)c1 [Compound 51]
[1]
  LC50, CL: 0.001%
[2]
  LC50, LH: 0.001%
[3]
  LC50, TBW, E (TBW-E): 0.067%
[4]
  LC50, TBW, C (TBW-C): 0.0025%
[5]
  LC50, HF: 25 µg

## CC(C)C(=Nc1ccc(F)c(F)c1)OCc1cccc(Oc2ccc(F)cc2)c1 [Compound 60]
[1]
  LC50, CL: 0.001%
[2]
  LC50, LH: 0.002%
[3]
  LC50, TBW, E (TBW-E): 0.017%
[4]
  LC50, TBW, C (TBW-C): 0.0009%
[5]
  LC50, HF: 8 µg
[6]
  LC50, MW: 0.0075%

## Cc1c(F)cccc1N=C(OCc1cccc(Oc2ccccc2)c1)C(C)C [Compound 73]
[1]
  LC50, CL: 0.004%
[3]
  LC50, TBW, E (TBW-E): 0.025%
[4]
  LC50, TBW, C (TBW-C): 0.005%
[5]
  LC50, HF: 25 µg

## Cc1ccc(F)cc1N=C(OCc1cccc(Oc2ccccc2)c1)C(C)C [Compound 74]
[1]
  LC50, CL: 0.005%
[3]
  LC50, TBW, E (TBW-E): 0.025%
[4]
  LC50, TBW, C (TBW-C): 0.0025%
[5]
  LC50, HF: 25 µg

## Cc1ccc(N=C(OCc2cccc(Oc3ccccc3)c2)C(C)C)cc1F [Compound 75]
[1]
  LC50, CL: 0.0025%
[2]
  LC50, LH: 0.0008%
[3]
  LC50, TBW, E (TBW-E): 0.01%
[4]
  LC50, TBW, C (TBW-C): 0.0075%
[5]
  LC50, HF: 5 µg

## COc1ccc(N=C(OCc2cccc(Oc3ccccc3)c2)C(C)C)cc1Cl [Compound 95]
[1]
  LC50, CL: 0.0025%
[3]
  LC50, TBW, E (TBW-E): 0.025%
[4]
  LC50, TBW, C (TBW-C): 0.004%
[5]
  LC50, HF: 10 µg

## Cc1cc(Cl)ccc1N=C(OCc1cccc(Oc2ccccc2)c1)C(C)C [Compound 96]
[1]
  LC50, CL: 0.003%
[3]
  LC50, TBW, E (TBW-E): 0.025%
[4]
  LC50, TBW, C (TBW-C): 0.0025%
[5]
  LC50, HF: 35 µg

## CC(C)C(=Nc1ccc(F)c(C(F)(F)F)c1)OCc1cccc(Oc2ccc(F)cc2)c1 [Compound 120]
[1]
  LC50, CL: 0.00015%
[2]
  LC50, LH: 0.0003%
[3]
  LC50, TBW, E (TBW-E): 0.04%
[4]
  LC50, TBW, C (TBW-C): 0.0025%
[5]
  LC50, HF: 14 µg
[6]
  LC50, MW: > 0.01%

## CCOc1ccc(N=C(OCc2cccc(Oc3ccccc3)c2)C(Cl)Cl)cc1 [Compound 138]
[1]
  LC50, CL: 0.005%
[2]
  LC50, LH: > 0.05%
[3]
  LC50, TBW, E (TBW-E): 0.08%
[4]
  LC50, TBW, C (TBW-C): 0.015%
[5]
  LC50, HF: 19 µg
[6]
  LC50, MW: > 0.01%

## CC(C)(C)c1ccc(N=C(OCc2cccc(Oc3ccccc3)c2)C(Cl)Cl)cc1 [Compound 140]
[1]
  LC50, CL: < 0.1%
[3]
  LC50, TBW, E (TBW-E): > 0.1%
[4]
  LC50, TBW, C (TBW-C): > 0.1%
[5]
  LC50, HF: > 100 µg

## COc1ccccc1N=C(OCc1cccc(Oc2ccccc2)c1)C(C)C [Compound 145]
[1]
  LC50, CL: 0.05%
[2]
  LC50, LH: > 0.05%
[3]
  LC50, TBW, E (TBW-E): > 0.1%
[4]
  LC50, TBW, C (TBW-C): 0.05%
[5]
  LC50, HF: > 100 µg

## COc1ccc(N=C(OCc2cccc(Oc3ccccc3)c2)C(C)C)c(OC)c1 [Compound 146]
[1]
  LC50, CL: 0.017%
[3]
  LC50, TBW, E (TBW-E): > 0.1%
[4]
  LC50, TBW, C (TBW-C): 0.025%
[5]
  LC50, HF: 40 µg

## CC(=O)c1ccc(N=C(OCc2cccc(Oc3ccccc3)c2)C(C)C)cc1 [Compound 147]
[1]
  LC50, CL: 0.01%
[3]
  LC50, TBW, E (TBW-E): > 0.1%
[4]
  LC50, TBW, C (TBW-C): 0.0075%
[5]
  LC50, HF: 10 µg

## CC(C)C(=Nc1cc(F)cc(F)c1)OCc1cccc(Oc2ccc(F)cc2)c1 [Compound 199]
[1]
  LC50, CL: 0.0006%
[3]
  LC50, TBW, E (TBW-E): > 0.1%
[4]
  LC50, TBW, C (TBW-C): 0.003%
[5]
  LC50, HF: 8 µg
[6]
  LC50, MW: > 0.01%

## CC(C)(C)C(=Nc1ccc(F)c(Cl)c1)OCc1cccc(Oc2ccc(F)cc2)c1 [Compound 204]
[1]
  LC50, CL: 0.0023%
[3]
  LC50, TBW, E (TBW-E): > 0.1%
[4]
  LC50, TBW, C (TBW-C): 0.004%
[5]
  LC50, HF: > 100 µg
[6]
  LC50, MW: > 0.01%

## CCC(C)C(=Nc1ccc(F)c(Cl)c1)OCc1cccc(Oc2ccc(F)cc2)c1 (stereo not shown) [Compound 210]
[1]
  LC50, CL: 0.00028%
[3]
  LC50, TBW, E (TBW-E): 0.045%
[4]
  LC50, TBW, C (TBW-C): 0.0015%
[5]
  LC50, HF: 35 µg
[6]
  LC50, MW: > 0.01%

## CC(C)C(=Nc1ccc2c(c1)OC(C)(C)O2)OCc1cccc(Oc2ccc(F)cc2)c1 [Compound 219]
[1]
  LC50, CL: 0.00025%
[3]
  LC50, TBW, E (TBW-E): 0.027%
[4]
  LC50, TBW, C (TBW-C): 0.004%
[5]
  LC50, HF: 50 µg
[6]
  LC50, MW: > 0.01%

## CC(C)C(=Nc1cccc(C(F)(F)F)c1)OCc1ccc(F)c(Oc2ccc(Cl)cc2)c1 [Compound 266]
[1]
  LC50, CL: 0.00016%
[3]
  LC50, TBW, E (TBW-E): 0.06%
[4]
  LC50, TBW, C (TBW-C): 0.0007%
[5]
  LC50, HF: 10 µg

## C=C(C)C(=Nc1ccc(C(F)(F)F)cc1)OCc1ccc(F)c(Oc2ccc(Cl)cc2)c1 [Compound 432]
[1]
  LC50, CL: 0.0012%
[3]
  LC50, TBW, E (TBW-E): 0.032%
[4]
  LC50, TBW, C (TBW-C): < 0.1%
[5]
  LC50, HF: < 100 µg
[6]
  LC50, MW: > 0.01%
